The molecules below were run on MOLM13 cells (assay: Growth inhibition of CDK9-positive cell line MOLM13 in vitro (CCK8/MTT assay)). Settings: Homo sapiens, MOLM-13; MOLM13 cells, cultured 3 to 6 days, CCK8; read-out: IC50 of the compound for inhibiting cell growth, MOLM13 cells.
Format: cell-based, human
Description: 1. MOLM13 cell line and cell culture MOLM13 is a CDK9-positive human acute myeloid leukemia cell line from DMSZ. Suspension culture was carried out in RPMI1640 (Gibco) medium with 10% fetal bovine serum (Gibco), 1% penicillin-streptomycin and 2 mM glutamine.
Suspended MOLM-13 cells in logarithmic growth phase were collected by centrifugation (1700 rpm, 3 minutes), the supernatant was discarded, and the cells were counted. A solution with a cell concentration of 2×10^5 cells per milliliter was formulated and inoculated in a 96-well plate (Corning) with 100 microliters per well. The plate was incubated at 37° C., 5% CO2 overnight. On the next day, the test compound was added to the cultured cells in two parallel wells. […]
The present compound and the control compounds were respectively dissolved in DMSO (Sigma).
When the solvent control well became dark yellow, the OD450 nm absorption value was measured, and the cell growth rate was calculated according to the following formula. Cell growth rate %=100*(T−T0)/(C−T0), wherein T=the optical density value of the drug-treated well—the optical density value of the blank control well, T0=the optical density value of the well before drug treatment—the optical density value of the blank control well, C=the optical density value of the solvent control well—the optical density value of the blank control well. […] The assay was repeated three times, and the data was subjected to a biological statistical analysis.
For NC(=O)c1cn(-c2ccnc(Nc3ccc(N4CCNCC4)cc3)n2)c2cc(F)ccc12 [Compound 30, 6-fluoro-1-[2-(4-piperazin-1-yl-phenylamino)-pyrimidin-4-yl]-1H-indole-3-carboxamide], the IC50 was 1 to 10 nM.
Molecule NC(=O)c1cn(-c2ccnc(Nc3ccc(N4CCNCC4)cc3)n2)c2c(F)cccc12 [Compound 31, 7-fluoro-1-[2-(4-piperazin-1-yl-phenylamino)-pyrimidin-4-yl]-1H-indole-3-carboxamide] has an IC50 of 10 to 100 nM.
NC(=O)c1cn(-c2ccnc(Nc3ccc(N4CCNCC4)cc3)n2)c2ccc(Br)cc12 [Compound 32, 5-bromo-1-[2-(4-piperazin-1-yl-phenylamino)-pyrimidin-4-yl]-1H-indole-3-carboxamide] showed an IC50 of 10 to 100 nM.
COc1ccc2c(c1)c(C(N)=O)cn2-c1ccnc(Nc2ccc(N3CCNCC3)cc2)n1 [Compound 33, 5-methoxy-1-[2-(4-piperazin-1-yl-phenylamino)-pyrimidin-4-yl]-1H-indole-3-carboxamide] gave an IC50 of 1 to 10 nM.
For NC(=O)c1cn(-c2nc(Nc3ccc(N4CCNCC4)cc3)ncc2Cl)c2ccccc12 [Compound 34, 1-[5-chloro-2-(4-piperazin-1-yl-phenylamino)-pyrimidin-4-yl]-1H-indole-3-carboxamide], the IC50 was < 1 nM.
In the case of NC(=O)c1cn(-c2nc(Nc3ccc(N4CCNCC4)cc3)ncc2F)c2ccccc12 [Compound 35, 1-[5-fluoro-2-(4-piperazin-1-yl-phenylamino)-pyrimidin-4-yl]-1H-indole-3-carboxamide], the IC50 is reported as < 1 nM.
COc1cnc(Nc2ccc(N3CCNCC3)cc2)nc1-n1cc(C(N)=O)c2ccccc21 [Compound 36, 1-[5-methoxy-2-(4-piperazin-1-yl-phenylamino)-pyrimidin-4-yl]-1H-indole-3-carboxamide] showed an IC50 of 1 to 10 nM.
Work on Cc1cnc(Nc2ccc(N3CCNCC3)cc2)nc1-n1cc(C(N)=O)c2ccccc21 [Compound 37, 1-[5-methyl-2-(4-piperazin-1-yl-phenylamino)-pyrimidin-4-yl]-1H-indole-3-carboxamide] yielded an IC50 of 1 to 10 nM.
For Cc1cc(-n2cc(C(N)=O)c3ccccc32)nc(Nc2ccc(N3CCNCC3)cc2)n1 [Compound 38, 1-[6-methyl-2-(4-piperazin-1-yl-phenylamino)-pyrimidin-4-yl]-1H-indole-3-carboxamide], the IC50 was 100 to 1000 nM.
COc1cc(Nc2ncc(F)c(-n3cc(C(N)=O)c4ccccc43)n2)ccc1N1CCNCC1 [Compound 40, 1-[5-fluoro-2-(3-methoxy-4-piperazin-1-yl-phenylamino)-pyrimidin-4-yl]-1H-indole-3-carboxamide] was tested, and the IC50 was < 1 nM.
For NC(=O)c1cn(-c2nc(Nc3ccc(N4CCNCC4)c(F)c3)ncc2F)c2ccccc12 [Compound 41, 1-[5-fluoro-2-(3-fluoro-4-piperazin-1-yl-phenylamino)-pyrimidin-4-yl]-1H-indole-3-carboxamide], the IC50 was 1 to 10 nM.
COc1cc(Nc2ncc(Cl)c(-n3cc(C(N)=O)c4ccccc43)n2)ccc1N1CCNCC1 [Compound 43, 1-[5-chloro-2-(3-methoxy-4-piperazin-1-yl-phenylamino)-pyrimidin-4-yl]-1H-indole-3-carboxamide] was tested, and the IC50 was < 1 nM.
In the case of NC(=O)c1cn(-c2nc(Nc3ccc(N4CCNCC4)c(F)c3)ncc2Cl)c2ccccc12 [Compound 44, 1-[5-chloro-2-(3-fluoro-4-piperazin-1-yl-phenylamino)-pyrimidin-4-yl]-1H-indole-3-carboxamide], the IC50 is reported as 1 to 10 nM.
Molecule CN1CCN(c2ccc(Nc3nccc(-n4cc(C(N)=O)c5ccccc54)n3)cc2)CC1 [Compound 45, 1-{2-[4-(4-methyl-piperazin-1-yl)-phenylamino]-pyrimidin-4-yl}-1H-indole-3-carboxamide] has an IC50 of 10 to 100 nM.
CN1CCN(c2ccc(Nc3nccc(-n4cc(C(N)=O)c5ccccc54)n3)cc2F)CC1 [Compound 46, 1-{2-[3-fluoro-4-(4-methyl-piperazin-1-yl)-phenylamino]-pyrimidin-4-yl}-1H-indole-3-carboxamide] gave an IC50 of 1 to 10 nM.
CN1CCN(c2c(F)cc(Nc3nccc(-n4cc(C(N)=O)c5ccccc54)n3)cc2F)CC1 [Compound 47, 1-{2-[3,5-difluoro-4-(4-methyl-piperazin-1-yl)-phenylamino]-pyrimidin-4-yl}-1H-indole-3-carboxamide] gave an IC50 of 10 to 100 nM.
In the case of COc1cc(Nc2nccc(-n3cc(C(N)=O)c4ccccc43)n2)ccc1N1CCN(C)CC1 [Compound 48, 1-{2-[3-methoxy-4-(4-methyl-piperazin-1-yl)-phenylamino]-pyrimidin-4-yl}-1H-indole-3-carboxamide], the IC50 is reported as 10 to 100 nM.
CN1CCN(c2ccc(Nc3nccc(-n4cc(C(N)=O)c5ccccc54)n3)cc2C#N)CC1 [Compound 49, 1-{2-[3-cyano-4-(4-methyl-piperazin-1-yl)-phenylamino]-pyrimidin-4-yl}-1H-indole-3-carboxamide] gave an IC50 of 1 to 10 nM.
For Cc1cc(Nc2nccc(-n3cc(C(N)=O)c4ccccc43)n2)ccc1N1CCN(C)CC1 [Compound 50, 1-{2-[3-methyl-4-(4-methyl-piperazin-1-yl)-phenylamino]-pyrimidin-4-yl}-1H-indole-3-carboxamide], the IC50 was 1 to 10 nM.
With Cc1cc(Nc2nccc(-n3cc(C(N)=O)c4ccccc43)n2)ccc1N1CCN(C(C)C)CC1 [Compound 51, 1-{2-[4-(4-isopropyl-piperazin-1-yl)-3-methyl-phenylamino]-pyrimidin-4-yl}-1H-indole-3-carboxamide] the IC50 was 1 to 10 nM.
CN1CCN(c2ccc(Nc3ncc(F)c(-n4cc(C(N)=O)c5ccccc54)n3)cc2)CC1 [Compound 52, 1-{5-fluoro-2-[4-(4-methyl-piperazin-1-yl)-phenylamino]-pyrimidin-4-yl}-1H-indole-3-carboxamide] gave an IC50 of 1 to 10 nM.
CN1CCN(c2ccc(Nc3ncc(Cl)c(-n4cc(C(N)=O)c5ccccc54)n3)cc2)CC1 [Compound 53, 1-{5-chloro-2-[4-(4-methyl-piperazin-1-yl)-phenylamino]-pyrimidin-4-yl}-1H-indole-3-carboxamide] was tested, and the IC50 was 1 to 10 nM.
Work on CN1CCN(c2ccc(Nc3ncc(F)c(-n4cc(C(N)=O)c5ccccc54)n3)cc2F)CC1 [Compound 54, 1-{5-fluoro-2-[3-fluoro-4-(4-methyl-piperazin-1-yl)-phenylamino]-pyrimidin-4-yl}-1H-indole-3-carboxamide] yielded an IC50 of 1 to 10 nM.
CCN1CCN(c2ccc(Nc3ncc(F)c(-n4cc(C(N)=O)c5ccccc54)n3)cc2C)CC1 [Compound 57, 1-{2-[4-(4-ethyl-piperazin-1-yl)-3-methyl-phenylamino]-5-fluoro-pyrimidin-4-yl}-1H-indole-3-carboxamide] showed an IC50 of 1 to 10 nM.
In the case of CCN1CCN(c2ccc(Nc3ncc(Cl)c(-n4cc(C(N)=O)c5ccccc54)n3)cc2C)CC1 [Compound 58, 1-{5-chloro-2-[4-(4-ethyl-piperazin-1-yl)-3-methyl-phenylamino]-pyrimidin-4-yl}-1H-indole-3-carboxamide], the IC50 is reported as < 1 nM.
Cc1cc(Nc2ncc(F)c(-n3cc(C(N)=O)c4ccccc43)n2)ccc1N1CCN(C(C)C)CC1 [Compound 59, 1-{5-fluoro-2-[4-(4-isopropyl-piperazin-1-yl)-3-methyl-phenylamino]-pyrimidin-4-yl}-1H-indole-3-carboxamide] showed an IC50 of 1 to 10 nM.
In the case of CN1CCN(c2ccc(Nc3ncc(Cl)c(-n4cc(C(N)=O)c5ccccc54)n3)cc2F)CC1 [Compound 61, 1-{5-chloro-2-[3-fluoro-4-(4-methyl-piperazin-1-yl)-phenylamino]-pyrimidin-4-yl}-1H-indole-3-carboxamide], the IC50 is reported as 1 to 10 nM.
For CN1CCC(N2CCN(c3ccc(Nc4nccc(-n5cc(C(N)=O)c6ccccc65)n4)cc3F)CC2)CC1 [Compound 62, 1-(2-{3-fluoro-4-[4-(1-methyl-piperidin-4-yl)-piperazin-1-yl]-phenylamino}-pyrimidin-4-yl)-1H-indole-3-carboxamide], the IC50 was 10 to 100 nM.
In the case of CN(C)CCN1CCN(c2ccc(Nc3nccc(-n4cc(C(N)=O)c5ccccc54)n3)cc2F)CC1 [Compound 63, 1-(2-{4-[4-(2-dimethylamino-ethyl)-piperazin-1-yl]-3-fluoro-phenylamino}-pyrimidin-4-yl)-1H-indole-3-carboxamide], the IC50 is reported as 1 to 10 nM.
C=CC(=O)N1CCN(c2ccc(Nc3nccc(-n4cc(C(N)=O)c5ccccc54)n3)cc2C)CC1 [Compound 64, 1-{2-[4-(4-acryloyl-piperazin-1-yl)-3-methyl-phenylamino]-pyrimidin-4-yl}-1H-indole-3-carboxamide] was tested, and the IC50 was 10 to 100 nM.
For CCC(=O)N1CCN(c2ccc(Nc3nccc(-n4cc(C(N)=O)c5ccccc54)n3)cc2C)CC1 [Compound 65, 1-{2-[3-methyl-4-(4-propionyl-piperazin-1-yl)-phenylamino]-pyrimidin-4-yl}-1H-indole-3-carboxamide], the IC50 was 10 to 100 nM.
For CC(=O)N1CCN(c2ccc(Nc3nccc(-n4cc(C(N)=O)c5ccccc54)n3)cc2F)CC1 [Compound 66, 1-{2-[4-(4-acetyl-piperazin-1-yl)-3-fluoro-phenylamino]-pyrimidin-4-yl}-1H-indole-3-carboxamide], the IC50 was 10 to 100 nM.
COC1CCN(c2ccc(Nc3nccc(-n4cc(C(N)=O)c5ccccc54)n3)cc2)CC1 [Compound 67, 1-{2-[4-(4-methoxy-piperidin-1-yl)-phenylamino]-pyrimidin-4-yl}-1H-indole-3-carboxamide] was tested, and the IC50 was 10 to 100 nM.

From US20210101881A1 (Ancureall Pharmaceutical (Shanghai) Co., Ltd., priority 2018, published 2021)
